Legend:
[1] = molecular target: T1, Amine oxidase [flavin-containing] B (Homo sapiens, UniProt P27338); experiment: Inhibition of recombinant human MAO-B using p-tyramine as substrate preincubated for 15 mins followed by substrate addition measured over 15 mins by Amplex red reagent-based fluorimetric method
T1 sequence (P27338 whole entry): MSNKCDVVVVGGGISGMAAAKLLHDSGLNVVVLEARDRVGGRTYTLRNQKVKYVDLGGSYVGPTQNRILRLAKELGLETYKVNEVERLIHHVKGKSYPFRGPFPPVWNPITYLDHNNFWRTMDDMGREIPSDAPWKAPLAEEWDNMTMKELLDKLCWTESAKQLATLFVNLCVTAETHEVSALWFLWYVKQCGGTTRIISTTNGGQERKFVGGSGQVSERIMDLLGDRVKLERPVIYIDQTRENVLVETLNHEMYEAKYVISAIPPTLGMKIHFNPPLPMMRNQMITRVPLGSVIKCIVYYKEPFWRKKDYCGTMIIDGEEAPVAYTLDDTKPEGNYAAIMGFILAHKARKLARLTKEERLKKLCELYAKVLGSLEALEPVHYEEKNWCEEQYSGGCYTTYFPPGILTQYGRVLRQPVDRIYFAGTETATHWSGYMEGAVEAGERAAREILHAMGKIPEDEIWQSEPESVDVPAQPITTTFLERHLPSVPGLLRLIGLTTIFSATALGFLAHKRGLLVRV

[2] = organism: Homo sapiens; experiment: Selectivity index, ratio of IC50 for recombinant human MAO-A to IC50 for recombinant human MAO-B
[3] = molecular target: T2, Amine oxidase [flavin-containing] A (Homo sapiens, UniProt P21397); experiment: Inhibition of recombinant human MAO-A using p-tyramine as substrate preincubated for 15 mins followed by substrate addition measured over 15 mins by Amplex red reagent-based fluorimetric method
T2 sequence (P21397 whole entry): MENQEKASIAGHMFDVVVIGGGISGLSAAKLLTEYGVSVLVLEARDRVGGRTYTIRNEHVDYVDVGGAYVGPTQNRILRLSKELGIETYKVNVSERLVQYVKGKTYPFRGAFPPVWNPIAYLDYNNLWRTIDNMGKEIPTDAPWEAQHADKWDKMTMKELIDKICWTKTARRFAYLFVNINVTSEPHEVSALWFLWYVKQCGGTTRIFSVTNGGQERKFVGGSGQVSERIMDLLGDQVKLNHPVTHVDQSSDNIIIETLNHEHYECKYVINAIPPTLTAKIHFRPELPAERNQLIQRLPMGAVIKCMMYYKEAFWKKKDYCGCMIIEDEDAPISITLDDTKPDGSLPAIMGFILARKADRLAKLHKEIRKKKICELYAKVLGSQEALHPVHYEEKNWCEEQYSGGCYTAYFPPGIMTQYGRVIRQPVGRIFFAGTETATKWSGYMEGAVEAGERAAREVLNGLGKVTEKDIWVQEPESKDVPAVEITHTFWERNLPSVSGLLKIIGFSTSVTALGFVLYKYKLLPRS

SMILES	IC50 [1] [µM]	Ratio IC50 [2]	IC50 [3] [µM]
C#CCNC1CCc2c(OCc3ccc(F)cc3)cccc21 (centres undefined)	1.87	4.17	7.8
C#CCNC1CCc2c(OCCOc3cccc(NC(C)=O)c3)cccc21 (centres undefined)	5.52	1.5	8.3
C#CCNC1CCc2c(OCc3cccc(Br)c3)cccc21 (centres undefined)	0.65	14.7	9.55
C#CCNC1CCc2c(OCCOc3cccc4ccccc34)cccc21 (centres undefined)	3.39	> 17.7	> 60
C#CCNC1CCc2c(OCCCOc3ccc(C(C)C)cc3)cccc21 (centres undefined)	5.38	7.93	42.7
C#CCNC1CCc2c(SCc3ccccc3)cccc21 (centres undefined)	6.24	> 9.62	> 60
C#CCNC1CCc2c(OCc3ccc4ccccc4c3)cccc21 (centres undefined)	6.21	> 9.66	> 60
C#CCNC1CCc2c(OCCc3ccccc3)cccc21 (centres undefined)	3.87	2.35	9.1
C#CCNC1CCc2c(OCCCOc3cccc4ccccc34)cccc21 (centres undefined)	> 60		> 60
C#CCNC1CCc2c(OCc3cccc(C)c3)cccc21 (centres undefined)	0.55	20.4	11.2
C#CCNC1CCc2c(OCCc3cccc(Cl)c3)cccc21 (centres undefined)	5.87	> 10.2	> 60
C#CCNC1CCc2c(OCCCOc3ccc(CC)cc3)cccc21 (centres undefined)	10.5	2.99	31.4
C#CCNC1CCc2c(OCCc3ccc(Cl)cc3)cccc21 (centres undefined)	2.51	4.07	10.2
C#CCNC1CCc2c(OCc3ccc(C)cc3)cccc21 (centres undefined)	1.09	3.97	4.33
C#CCNC1CCc2c(OCCCOc3ccccc3)cccc21 (centres undefined)	10.2	> 5.87	> 60
C#CCNC1CCc2c(OCc3cccc(Cl)c3)cccc21 (centres undefined)	0.33	21.2	7
C#CCNC1CCc2c(OCc3ccc(F)c(F)c3)cccc21 (centres undefined)	1.41	5.12	7.22
C#CCNC1CCc2c(OCCOc3ccccc3)cccc21 (centres undefined)	4.57	3.08	14.1
C#CCNC1CCc2c(OCc3ccccc3)cccc21 (centres undefined)	1.97	7.84	15.4
C#CCNC1CCc2c(OCCCOc3cc(C)c(Cl)c(C)c3)cccc21 (centres undefined)	6.91	> 8.68	> 60
C#CCNC1CCc2c(OCc3cccc(F)c3)cccc21 (centres undefined)	0.28	18.6	5.2
C#CCNC1CCc2c(OCCc3cccc(NC(=O)c4ccc(Cl)cc4)c3)cccc21 (centres undefined)	0.02	466	9.33
C#CCNC1CCc2c(OCCOc3cccc(NC(=O)CCl)c3)cccc21 (centres undefined)	6.91	> 8.68	> 60
C#CCNC1CCc2c(OCc3ccc(C(F)(F)F)cc3)cccc21 (centres undefined)	1.39	> 43.7	> 60
C#CCNC1CCc2c(OCCCOc3cccc(I)c3)cccc21 (centres undefined)	18	> 3.33	> 60
